Experimental data taken from publication PMC10674403, “Imperatorin Restores Chemosensitivity of Multidrug-Resistant Cancer Cells by Antagonizing ABCG2-Mediated Drug Transport” (Pharmaceuticals, 2023).

Legend:
[1] = molecular target: T1, ABCG2 (Homo sapiens, UniProt Q9UNQ0); assay: Vanadate-sensitive ATPase stimulation in ABCG2 membrane vesicles (Pi release); also inhibition of PhA efflux in ABCG2-transfected HEK293 cells; type: biochemical; design: membrane vesicles derived from ABCG2 baculovirus-infected High Five insect cells
T1 sequence (Q9UNQ0 1-655): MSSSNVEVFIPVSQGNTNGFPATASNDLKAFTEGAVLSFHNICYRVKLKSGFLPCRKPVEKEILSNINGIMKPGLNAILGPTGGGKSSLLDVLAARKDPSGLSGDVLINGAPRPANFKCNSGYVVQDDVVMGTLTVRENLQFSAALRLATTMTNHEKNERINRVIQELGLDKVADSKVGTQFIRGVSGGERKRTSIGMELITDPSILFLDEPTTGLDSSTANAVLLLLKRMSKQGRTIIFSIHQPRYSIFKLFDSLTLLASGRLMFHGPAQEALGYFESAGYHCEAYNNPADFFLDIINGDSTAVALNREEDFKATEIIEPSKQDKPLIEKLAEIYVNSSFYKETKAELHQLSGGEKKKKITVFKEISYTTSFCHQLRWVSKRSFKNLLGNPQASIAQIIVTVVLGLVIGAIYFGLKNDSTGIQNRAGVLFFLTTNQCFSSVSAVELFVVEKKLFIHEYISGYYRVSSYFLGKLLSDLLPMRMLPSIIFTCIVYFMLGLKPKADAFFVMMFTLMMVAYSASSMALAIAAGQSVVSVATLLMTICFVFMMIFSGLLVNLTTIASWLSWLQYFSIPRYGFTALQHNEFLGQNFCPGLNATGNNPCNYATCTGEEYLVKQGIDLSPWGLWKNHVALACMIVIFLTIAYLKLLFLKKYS

[2] = molecular target: T1, ABCG2; assay: Fluorescent substrate accumulation/efflux by flow cytometry in ABCG2-expressing versus parental cells; type: cell-based; design: human ABCG2-transfected R482-HEK293 cells; S1-MI-80 and H460-MX20 cells

Q: `CC(C)=CCOc1c2occc2cc2ccc(=O)oc12` [IMP, Imperatorin] was tested. Which EC50 [1] did it give?
A: Its EC50 is ~170 nM.

Q: Which “Fluorescent substrate accumulation/efflux by flow cytometry in ABCG2-expressing” value [2] does the source give for `C=Cc1c(C)c2cc3nc(c4c5[nH]c(cc6nc(cc1[nH]2)C(C)=C6CC)c(C)c5C(=O)[C@@H]4C(=O)OC)[C@@H](CCC(=O)O)[C@@H]3C` [PhA, pheophorbide A] here?
A: Its value is “ABCG2-mediated efflux of an ABCG2-specific fluorescent substrate PhA”.
